# Test results: PubChem BioAssay (NCI)
#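 Tested at 5 concentrations; 48 h exposure; 96-well plates; endpoints linearly interpolated, else capped at highest concentration. TGI: concentration producing complete growth inhibition.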
# Experiments:
# Test in all cases: NCI-60 cell line screen, 48 h
# [1] = system: COLO 205 colon
# [2] = system: SF-539 CNS
# [3] = system: BT-549 breast
# [4] = system: MCF7 breast
# [5] = system: NCI-H522 lung
# [6] = system: A549 NSCLC
# [7] = system: MALME-3M melanoma
# [8] = system: DU-145 prostate
# [9] = system: U251 CNS
# [10] = system: SW-620 colon
# [11] = system: A498 renal
# [12] = system: SK-MEL-5 melanoma
# [13] = system: KM12 colon
# [14] = system: OVCAR-3 ovarian
# [15] = system: SR leukemia
# [16] = system: OVCAR-4 ovarian
# [17] = system: EKVX NSCLC
# [18] = system: SK-MEL-2 melanoma
# [19] = system: MDA-MB-231 breast
# [20] = system: HT29 colon
# [21] = system: M14 melanoma
# [22] = system: UACC-257 melanoma
# [23] = system: MOLT-4 leukemia
# [24] = system: HCT-116 colon
# [25] = system: NCI-H226 lung
# [26] = system: CAKI-1 renal
# [27] = system: SK-OV-3 ovarian
# [28] = system: HS 578T breast
# [29] = system: SNB-75 CNS
# [30] = system: HOP-92 NSCLC
# [31] = system: T-47D breast
# [32] = system: SN12C renal
# [33] = system: IGROV1 ovarian
# [34] = system: LOX IMVI melanoma
# [35] = system: NCI/ADR-RES ovarian
# [36] = system: ACHN renal
# [37] = system: HCC-2998 colon
# [38] = system: OVCAR-5 ovarian
# [39] = system: RXF 393 renal
# [40] = system: HCT-15 colon
# [41] = system: K-562 leukemia
# [42] = system: NCI-H23 lung
# [43] = system: MDA-N
# [44] = system: PC-3 prostate
# [45] = system: SK-MEL-28 melanoma
# [46] = system: UO-31 renal
# [47] = system: HL-60(TB) leukemia
# [48] = system: HOP-62 NSCLC
# [49] = system: RPMI-8226 leukemia
# [50] = system: OVCAR-8 ovarian
# [51] = system: 786-0 renal
# [52] = system: CCRF-CEM leukemia
# [53] = system: UACC-62 melanoma
# [54] = system: SNB-19 CNS
# [55] = system: SF-295 CNS
# [56] = system: MDA-MB-435
# [57] = system: TK-10 renal
# [58] = system: NCI-H460 lung
# [59] = system: SF-268 CNS
smiles,measurement,setting,value
COc1ccc(N=NC(=O)NC(CC(C)C)C(=O)NCC(=O)O)cc1 (configuration not stated),TGI,[1],24.5 µM
same,TGI,[2],29.7 µM
same,TGI,[3],> 100 µM
same,TGI,[4],> 100 µM
same,TGI,[5],> 100 µM
same,TGI,[6],> 61.9 µM
same,TGI,[7],> 100 µM
same,TGI,[8],> 100 µM
same,TGI,[9],> 100 µM
same,TGI,[10],> 100 µM
same,TGI,[11],> 100 µM
same,TGI,[12],> 56.2 µM
same,TGI,[13],> 100 µM
same,TGI,[14],> 100 µM
same,TGI,[15],> 100 µM
same,TGI,[16],> 100 µM
same,TGI,[17],> 100 µM
same,TGI,[18],> 100 µM
same,TGI,[19],> 100 µM
same,TGI,[20],> 100 µM
same,TGI,[21],> 100 µM
same,TGI,[22],> 100 µM
same,TGI,[23],> 100 µM
same,TGI,[24],> 100 µM
same,TGI,[25],99 µM
same,TGI,[26],> 100 µM
same,TGI,[27],> 100 µM
same,TGI,[28],> 100 µM
same,TGI,[29],> 100 µM
same,TGI,[30],> 100 µM
same,TGI,[31],> 84 µM
same,TGI,[32],> 100 µM
same,TGI,[33],> 100 µM
same,TGI,[34],> 100 µM
same,TGI,[35],> 100 µM
same,TGI,[36],> 100 µM
same,TGI,[37],> 87.5 µM
same,TGI,[38],> 100 µM
same,TGI,[39],> 100 µM
same,TGI,[40],> 100 µM
same,TGI,[41],> 29.1 µM
same,TGI,[42],> 100 µM
same,TGI,[43],> 100 µM
same,TGI,[44],> 100 µM
same,TGI,[45],> 100 µM
same,TGI,[46],10.7 µM
same,TGI,[47],> 100 µM
same,TGI,[48],> 100 µM
same,TGI,[49],> 100 µM
same,TGI,[50],> 100 µM
same,TGI,[51],> 100 µM
same,TGI,[52],> 100 µM
same,TGI,[53],> 100 µM
same,TGI,[54],> 100 µM
same,TGI,[55],> 100 µM
same,TGI,[56],> 100 µM
same,TGI,[57],> 100 µM
same,TGI,[58],> 58.7 µM
same,TGI,[59],> 100 µM
CCOC(=O)/C=C(/C(=O)OCC)n1ccc(=O)n(Cc2cnnn2COCCOC(C)=O)c1=O,TGI,[1],9.73 µM
same,TGI,[2],25.7 µM
same,TGI,[3],38.2 µM
same,TGI,[4],27.7 µM
same,TGI,[5],4.65 µM
same,TGI,[6],> 100 µM
same,TGI,[7],26.3 µM
same,TGI,[8],42.9 µM
same,TGI,[9],37.8 µM
same,TGI,[10],14.2 µM
same,TGI,[11],65 µM
same,TGI,[12],38.2 µM
same,TGI,[13],> 56.4 µM
same,TGI,[14],31 µM
same,TGI,[15],45.7 µM
same,TGI,[16],41.5 µM
same,TGI,[17],33.8 µM
same,TGI,[18],41.9 µM
same,TGI,[19],38.7 µM
same,TGI,[20],32 µM
same,TGI,[21],38.8 µM
same,TGI,[22],31.3 µM
same,TGI,[23],23.4 µM
same,TGI,[24],45.8 µM
same,TGI,[25],57.3 µM
same,TGI,[26],11.4 µM
same,TGI,[27],> 100 µM
same,TGI,[28],56.7 µM
same,TGI,[29],> 100 µM
same,TGI,[30],6.81 µM
same,TGI,[31],29.2 µM
same,TGI,[32],47.9 µM
same,TGI,[33],39.3 µM
same,TGI,[34],37.3 µM
same,TGI,[35],61.9 µM
same,TGI,[36],22.1 µM
same,TGI,[37],31.5 µM
same,TGI,[38],35.9 µM
same,TGI,[39],39 µM
same,TGI,[40],31 µM
same,TGI,[41],> 100 µM
same,TGI,[42],33.3 µM
same,TGI,[43],46.3 µM
same,TGI,[44],34.2 µM
same,TGI,[45],32.2 µM
same,TGI,[46],29.6 µM
same,TGI,[48],> 100 µM
same,TGI,[49],51.2 µM
same,TGI,[50],30.6 µM
same,TGI,[51],29.2 µM
same,TGI,[52],3.57 µM
same,TGI,[53],32.8 µM
same,TGI,[54],> 31.6 µM
same,TGI,[55],> 100 µM
same,TGI,[56],32.5 µM
same,TGI,[57],22.2 µM
same,TGI,[58],> 65 µM
same,TGI,[59],44.4 µM
